Assays:
[1] = Fluorescence quantum yield of F1-F3 and D1-D3; type: physicochemical
From the text: […] […] These comparisons indicate the absence of dye-dye quenching resulting from the aggregation for F1 and F2 in μM aqueous solutions. […] Also, a smaller phthalocyanine skeleton (e.g. with methyl instead of heptyl as peripheral groups) may be encapsulated with the current length of copolymer successfully.

[2] = Absorption and emission spectra of copolymers F1-F3 and fluorophores D1-D3; type: physicochemical
From the text: The target dye-loaded copolymers F1-F3 were then subject to investigations of their spectroscopic properties in both organic solvents and aqueous solution. […] Attaching to the 120-kDa amphiphilic copolymer drastically enhances the water solubility of BODIPY D1 and chlorin D2 without strong perturbation on the spectroscopic properties. Emission band for F1 and F2 in water remains the same as the ones measured in organic solutions, showing minimal dye-dye interaction is involved in aqueous solution of F1 and F2 at μM concentration. […] This negative result may be because of the inappropriate size of the copolymer backbone. Polymer larger in size may be required to encapsulate large hydrophobic fluorophores like the phthalocyanine D3.
All chemicals obtained commercially were used as received unless otherwise noted. Reagent-grade solvents (CH2Cl2, THF, methanol) and HPLC-grade water were used as received. NMR data was measured in a solution of CDCl3 unless otherwise noted. Noncommercial compounds 1, 2, and 4 were prepared following literature procedures. […] Samples were detected with Agilent 1260 infinity refractive index detector. Absorption spectra were measured on Agilent 8453 and Shimadzu UV1800 instruments using dilute (μmolar) solutions of the compound in UV transparent (e.g., quartz) cuvettes versus a solvent blank at room temperature.

Φf (fluorescence quantum yield) ([1]; CH2Cl2) | absorption wavelength [2] | Φf (fluorescence quantum yield) ([1]; Toluene) | Compound
0.19 | 640 nm | – | Cc1cc(C)c(-c2c3nc(c(-c4ccc(C(=O)NN)cc4)c4ccc(cc5nc(cc6ccc2[nH]6)CC5(C)C)[nH]4)C=C3)c(C)c1 [Compound D2, 5-[4-(N-Aminocarbamoyl)phenyl]-10-Mesityl-18,18-dimethylchlorin]
– | 700 nm | 0.68 | CCCCCCCc1cc2c(cc1CCCCCCC)-c1nc-2nc2[nH]c(nc3nc(nc4[nH]c(n1)c1cc(CCCCCCC)c(CCCCCCC)cc41)-c1cc(C#Cc4ccc(CC(=O)NN)cc4)ccc1-3)c1cc(CCCCCCC)c(CCCCCCC)cc21 [Compound D3, 2-[4-(N-Aminocarbamoyl)methylphenylethynyl]-9,10,16,17,23,24-hexaheptylphthalocyanine]
